Broadly, the inhibition is the percentage by which the read-out fell short of the control. High values mean a response far below the control, low ones a response near the control. In general, % inhibition refers to the share of the control response that was lost under treatment. A low value points to little suppression. The term Km denotes the concentration of substrate that gives half-maximal velocity.

Series [1] addresses T1, M. tuberculosis MshC (Cys:GlcN-Ins ligase) (Mycobacterium tuberculosis, UniProt P9WJM9). It counts as biochemical. Particulars: 0.1-5 mM, FIG. 16.
In series [2] the target is T1, M. tuberculosis MshC (Cys:GlcN-Ins ligase). Particulars: for activity as alternative substrate to Cys: 80 μM to 1.6 mM.
Series [3] shares this target. It counts as biochemical.
For series [4] the target is unchanged. It counts as biochemical. The conditions noted are these: 2, 10, 50 or 100 μM zinc chloride, FIG. 16.
Series [5] relates to M. smegmatis MSH deficient mutants (Tn1, Tn2, I64). It is filed as cell-based.
The test system of a further series is N[C@@H](CS)C(=O)O. Briefly: purified protein, by the assay type. The conditions noted are these: 37.0 °C.

Where “and” joins values, the source holds several entries; their conditions need not be identical. Identical values can stand only once. Like-named read-outs stand apart in the source and are kept apart here. Marks after values point to notes of the source that are not given here.

T1 sequence (P9WJM9 whole entry): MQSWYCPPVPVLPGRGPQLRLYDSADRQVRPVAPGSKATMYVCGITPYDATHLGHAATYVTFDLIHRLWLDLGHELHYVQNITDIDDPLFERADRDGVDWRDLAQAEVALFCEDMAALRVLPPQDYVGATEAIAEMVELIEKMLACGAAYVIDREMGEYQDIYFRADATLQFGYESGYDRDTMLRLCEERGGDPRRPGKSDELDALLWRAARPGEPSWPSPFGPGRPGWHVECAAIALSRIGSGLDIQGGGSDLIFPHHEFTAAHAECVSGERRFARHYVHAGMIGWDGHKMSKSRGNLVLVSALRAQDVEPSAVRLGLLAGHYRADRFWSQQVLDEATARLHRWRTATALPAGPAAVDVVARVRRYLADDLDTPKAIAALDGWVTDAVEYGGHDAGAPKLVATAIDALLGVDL

Take `c1cnc2c(c1)ccc1cccnc12` [1,10-phenanthroline]: the “effect of metal chelation on enzyme activity” value in series [1] is on record as “no significant loss of activity”.
Consider `Nc1ncnc2c1ncn2[C@@H]1O[C@H](COP(=O)(O)OP(=O)(O)OP(=O)(O)O)[C@@H](O)[C@H]1O` [ATP], for which the “decline of reaction rate” value in series [2] is given as 2.2 fold.
In the case of `CC(=O)N[C@@H](CS)C(=O)O` [AcCys, N-acetylcysteine], the “inhibition of ligase activity” value in series [3] is reported as “minor inhibition”. Further, in series [2], the relative spec. act. entry is reported as “≦0.24” and the “activity as alternative substrate to Cys” value was “Nor was significant activity detected”.
`N[C@@H](CS)C(=O)O` [Cys, L-cysteine]: in series [2], the Specific activity entry is “^cSpecific activity 108 nmol min^−1 mg^−1”, the “apparent Vmax (L-Cys varied)” value turned out to be 1450 ± 200 nmol/min/mg and the relative spec. act. entry is “(100)^c”.
In series [3], `N[C@@H](CS)C(=O)N[C@H]1[C@@H](OC2[C@H](O)[C@H](O)C(O)[C@H](O)[C@H]2O)O[C@H](CO)[C@@H](O)[C@@H]1O` (stereo partly drawn) [Cys-GlcN-Ins, 1D-myo-inosityl 2-L-cysteinylamido-2-deoxy-α-D-glucopyranoside] yielded an inhibition below 1.0%.
For the compound `N[C@H](CS)C(=O)O` [D-Cys], in series [3], the “% inhibition” value came to 15 ± 8% and the “inhibition of ligase activity” value is “Only very minor inhibition”. Also, in series [2], the relative spec. act. entry is listed as “≦0.7” and the “activity as alternative substrate to Cys” value is recorded as “poor substrate”.
As to `N[C@H]1C(O)O[C@H](CO)[C@@H](O)[C@@H]1O` (stereo partly drawn) [D-GlcN, D-glucosamine], in series [2], the “activity relative to GlcN-Ins” value is recorded as around 1% and the relative spec. act. turned out to be 1.2.
`N[C@H]1[C@@H](OC2[C@H](O)[C@H](O)C(O)[C@H](O)[C@H]2O)O[C@H](CO)[C@@H](O)[C@@H]1O` (stereo partly drawn) [GlcN-Ins, 1D-myo-inosityl 2-amino-2-deoxy-α-D-glucopyranoside]: the “apparent Vmax (GlcN-Ins varied)” value in series [2] amounted to 1160 ± 120 nmol/min/mg. Moreover, the Km in series [2] (read-out: apparent Km for GlcN-Ins) was 280 ± 43 µM.
Consider `C[C@H](N)C(=O)O` [L-alanine], for which the “inhibition of ligase activity” value in series [3] is given as “Only very minor inhibition”. Besides, in series [2], the relative spec. act. entry is “≦0.016” and the “activity as alternative substrate to Cys” value is “Nor was significant activity detected”.
Consider `N[C@@H](CCS)C(=O)O` [L-homocysteine], for which, in series [3], the “inhibition of ligase activity” value is “Only very minor inhibition”. In series [2], the relative spec. act. entry was “≦0.2” and the “activity as alternative substrate to Cys” value is on record as “Nor was significant activity detected”.
The like results for `N[C@@H](CO)C(=O)O` [L-serine] were, in that order, “Only very minor inhibition”, “≦0.008” and “Nor was significant activity detected”.
On to `CC[C@H](N)C(=O)O` [L-α-aminobutyric acid], for which the “inhibition of ligase activity” value in series [3] is listed as “Only very minor inhibition”.
As to `CC(=O)N[C@@H](CS)C(=O)N[C@H]1[C@@H](OC2[C@H](O)[C@H](O)C(O)[C@H](O)[C@H]2O)O[C@H](CO)[C@@H](O)[C@@H]1O` (stereo partly drawn) [MSH, 1D-myo-inosityl 2-(N-acetylcysteinyl)amido-2-deoxy-α-D-glucopyranoside], the “% inhibition” value in series [3] is 4 ± 3% and 7 ± 5%. In series [3] (1 and 5 mM, physiologic levels), the “inhibition of ligase activity” value is “minimal inhibition”.
As to `[Cl-].[Cl-].[Zn+2]` [Zn^2+, zinc chloride], the “effect of supplementation on enzyme activity” value in series [4] was “loss in activity”.
Regarding `NCCS` [cysteamine], in series [3], the “inhibition of ligase activity” value is “best inhibitor” and the reduction in rate is recorded as 3 fold. In series [2], the relative spec. act. result was “≦0.16”; the “activity as alternative substrate to Cys” value is “Neither β-mercaptopropionic acid nor cysteamine, derived from Cys by removal of the amino and carboxyl groups, respectively, produced evidence of reaction”.
Regarding `CC[C@@H](CO)NCCN[C@@H](CC)CO` [ethambutol], the “difference in sensitivity between mutants” value in series [5] is recorded as “no significant difference”.
Regarding `NC(=O)c1cnccn1` [pyrazinamide], the “difference in sensitivity between mutants” value in series [5] is on record as “no significant difference”.
Turning to `O=C(O)CCS` [β-mercaptopropionate, β-mercaptopropionic acid], the “inhibition of ligase activity” value in series [3] is listed as “minor inhibition”. Besides, in series [2], the relative spec. act. entry is “≦0.004”; the “activity as alternative substrate to Cys” value is “Neither β-mercaptopropionic acid nor cysteamine, derived from Cys by removal of the amino and carboxyl groups, respectively, produced evidence of reaction”.
Regarding “M. tuberculosis MshC (Cys:GlcN-Ins ligase) (Mycobacterium tuberculosis H37Rv)”, the Michaelis-Menten constant (Km) with N[C@@H](CS)C(=O)O was 70 ± 15 µM and 85 ± 20 µM.
